Laboratory results reported in patent US4746729A, “Cartilage-derived leukocyte elastase-inhibitor” (priority 1986, dated 1988).

Tested on: PMN-Elastase
Assay: PMN-Elastase inhibition assay with chromogenic substrate
Type: biochemical, human
Conditions: substrate methoxysuccinyl-Ala-Ala-Pro-Val-p-nitroanilide, 405 nm absorption, semiquantitative
Procedure: PMN-Elastase was isolated and purified from human neutrophile as depicted in Recent Advances In Connective Tissue Research, 1986, Bukhauser Verlag, Basel, Boston, Stuttgart, C. Arsenis, E. S.-M. A. Thomar, and K. E. Kuettner, pages 63-68, incorporated herein by reference. It has essentially no cathepsin-G activity. The enzyme was tested against its natural substrates, such as type IV collagen, insoluble amorphous elastin, and against the specific synthetic substrate Methoxysuccinyl-L-Alanyl-L-Alanyl-L-Prolyl-L-Valyl-p-nitro-anilide, from which a DMSO stock solution was made. See The Journal of Bioloqical Chemistry, Vol. 254, pp. 4027-4032, 1979, K. Nakajima, J. C. Powers, B. M. Ashe, and M. Zimmerman, incorporated herein by reference. Aliquots were diluted with assay buffer for each measurement.
30 microliters (2.5-15 micrograms protein/ml) of PMN-Elastase was poured into a 96 well-plate, and 70 microliters of sample were added and incubated for 30 minutes at 30° C. After addition of 100 microliters substrate solution (methoxy-succinyl-L-Alanyl-L-Alanyl-L-Prolyl-L-Valyl-p-nitroanilide) in DMSO, dilution to 3 mM was effected with a buffer solution of 20 mM Tris and 500 mM NaCl at pH 7.3 (final DMSO concentration 10%). […] By varying the enzyme quantities, semiquantitative relationships were obtained.

serum albumin: 68 KD blood contaminant in the high molecular weight fraction of the cartilage extract
PMN-Elastase inhibitory activity: inhibit the PMN-Elastase to a certain extent
